The structures appear in SMILES notation.

The target in data set [1] is T1, human SGLT2 (Homo sapiens, UniProt P31639).
T1 construct: expressed in transfected cells; host or cells: CHO-K1
T1 sequence (P31639 1-672): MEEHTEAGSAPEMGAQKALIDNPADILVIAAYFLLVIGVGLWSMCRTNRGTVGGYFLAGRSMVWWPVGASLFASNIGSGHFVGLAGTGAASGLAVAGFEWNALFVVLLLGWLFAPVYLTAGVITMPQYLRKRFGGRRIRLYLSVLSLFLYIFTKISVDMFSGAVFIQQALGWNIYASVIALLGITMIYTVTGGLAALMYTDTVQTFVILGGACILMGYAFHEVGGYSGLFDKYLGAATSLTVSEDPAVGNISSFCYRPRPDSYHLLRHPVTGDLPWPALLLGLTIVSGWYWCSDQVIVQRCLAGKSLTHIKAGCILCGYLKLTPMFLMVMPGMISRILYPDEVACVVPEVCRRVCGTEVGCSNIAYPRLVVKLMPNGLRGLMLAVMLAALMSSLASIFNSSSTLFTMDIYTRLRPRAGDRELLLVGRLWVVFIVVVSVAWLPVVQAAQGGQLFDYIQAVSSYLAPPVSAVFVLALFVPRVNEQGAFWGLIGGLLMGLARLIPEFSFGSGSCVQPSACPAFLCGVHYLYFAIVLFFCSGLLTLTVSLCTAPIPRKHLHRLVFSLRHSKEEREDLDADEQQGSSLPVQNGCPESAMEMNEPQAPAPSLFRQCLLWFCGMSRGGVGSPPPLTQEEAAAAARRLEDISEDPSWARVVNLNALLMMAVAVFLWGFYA
Description: Inhibition of methyl-α-D-glucopyranoside intake in human SGLT2 stable expression CHO cells. The class given is cell-based. The settings on record: methyl-α-D-(U-14C)glucopyranoside intake, 37° C., 45 minutes. Here is the method: Test for Confirming Action of Inhibiting Human Na^+-Glucose Co-Transporters (SGLT1 and SGLT2)
(2) Preparation of Human SGLT2 Expression Vector
PCR was performed by KOD+DNA polymerase by taking a human kidney-derived cDNA library (a product of Clontech) as a template with the use of a synthesized DNA primer to amplify human SGLT2 cDNA. […] From the proliferated E. coli, a plasmid was purified according to the usual way. By taking this plasmid as a template, PCR was performed by KOD+DNA polymerase with the use of a synthetic DNA primer into which restriction enzyme recognition sites had been introduced to amplify human SGLT2 cDNA (a fragment added with Xho I recognition site on the upstream side and a Hind III recognition site on the downstream side). This amplified fragment was subjected to Xho I and Hind III digestion to connect the digested fragments to their recognition sites of the expression vector pcDNA 3.1(−) with the use of the Rapid DNA Ligation kit. The connected expression vector was introduced into E. coli competent cells (DH5α) and proliferated in an ampicillin-containing LB medium to obtain a human SGLT2 expression vector according to the usual way.
(3) Preparation of Human SGLT1 Stable Expression Cell and Human SGLT2 Stable Expression Cell […]

Data set [2] can be described thus: Test for determining blood half-life in rat. In kind it is in vivo. The settings on record: iv; SD male rat, intravenously administered, dosage 10 mg/kg, plasma, LC-MS/MS, non-compartmental analysis, half-life in the final layer. The protocol: Test for Determining Blood Half-Life in Rat
A test compound was intravenously administered to a SD male rat (8-weeks old, Japan SLC) and the blood was collected 2 minutes, 5 minutes, 15 minutes, 30 minutes, 1 hour, 2 hours, 4 hours, 6 hours and 8 hours after administration, respectively. The obtained blood was centrifuged to obtain plasma. The plasma sample (0.01 mL) and water (0.4 mL) were added to a tube added with an internal standard substance of phenyloin (250 ng), and diethyl ether (2 mL) was added thereto and the obtained solution was stirred for five minutes, and then centrifuged for 10 minutes and an organic layer was recovered and subjected to nitrogen dryness, and a mobile phase was added to the obtained solid to dissolve it and the resulting solution was taken as a sample for determination.
The sample for determination was injected into LC-MS/MS and determined under the following conditions. • Column: ODS (2.0×150 mm) • Mobile Phase Acetonitrile/10 mM ammonium acetate=4/6 (v/v) • Flow Rate: 0.2 mL/min • Amount of Sample Injected: 10 μL • Mass Analysis: ESI (+)
The plasma concentration obtained by the LC-MS/MS method was subjected to non-compartmental analysis with the use of the WinNonlin standard made by Pharsight Corporation to calculate pharmacokinetic parameters.

Usually IC50 stands for the concentration at which inhibition is half-maximal. With `Cc1ccc(Cc2cc([C@@H]3O[C@H](CO)[C@@H](O)[C@H](O)[C@H]3O)c3ccccc3c2)s1` [Example 8, (2R,3S,4R,5R,6S)-2-hydroxymethyl-6-[3-(5-methylthiophen-2-ylmethyl)naphthalen-1-yl]tetrahydropyran-3,4,5-triol], the midpoint of inhibition in data set [1], the IC50, lay at 18 nM.

A word on the half-life: it is how long it takes for the measured level to halve. High values mean slow decline, low ones rapid decline. On to `OC[C@H]1O[C@@H](c2cc(Cc3cc4ccccc4s3)cc3ccccc23)[C@H](O)[C@@H](O)[C@@H]1O` [Example 1, (2S,3R,4R,5S,6R)-2-[3-(Benzo[b]thiophen-2-ylmethyl)-naphthalen-1-yl]-6-hydroxymethyl-tetrahydropyran-3,4,5-triol], for which, in data set [2], the half-life is 8.21 h. The midpoint of inhibition in data set [1], the IC50, lay at 18 nM.

For the origin of these results see patent US7943748B2, “Glucitol derivative, prodrug thereof and salt thereof, and therapeutic agent containing the same for diabetes” (Chugai Seiyaku Kabushiki Kaisha, priority 2004, dated 2011).
